In one assay the target is T1, AURORA A (Homo sapiens, UniProt O14965).
T1 sequence (O14965 1-403): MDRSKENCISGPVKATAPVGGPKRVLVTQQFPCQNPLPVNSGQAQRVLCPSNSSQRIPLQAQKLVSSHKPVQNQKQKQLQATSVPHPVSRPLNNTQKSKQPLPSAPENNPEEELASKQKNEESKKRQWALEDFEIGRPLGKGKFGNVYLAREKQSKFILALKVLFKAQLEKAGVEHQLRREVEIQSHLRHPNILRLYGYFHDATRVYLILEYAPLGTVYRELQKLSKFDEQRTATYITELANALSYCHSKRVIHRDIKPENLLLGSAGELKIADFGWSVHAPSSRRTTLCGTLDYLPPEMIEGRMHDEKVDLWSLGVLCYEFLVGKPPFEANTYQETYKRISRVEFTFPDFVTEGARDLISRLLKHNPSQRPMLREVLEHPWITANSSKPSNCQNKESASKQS
The assay is described as follows: In vitro filtration assay for AURORA A inhibitory activity. The format is biochemical. As to conditions: Kemptide substrate, 1 μM unlabeled ATP, 25° C. 40 minutes, read-out: Aurora A see C.2 (pIC50) (converted). On the procedure:
Compounds of the present invention were tested in an in vitro filtration assay assessing AURORA A activity by means of its substrate-phosphorylation activity using [^33P]-ATP as phosphor donor. The radioactive phosphorylated substrate is then captured on filtermats and the incorporated [^33P] quantitated using a phosphorage storage screen.
The Aurora-A kinase reaction is performed at 25° C. for 40 minutes in a 96-well microtiterplate. The 25 μl reaction volume contains 12 mM MOPS pH 7, 0.4 mM EDTA, 0.002% Brij35, 1% glycerol, 0.02% beta-mercapto-ethanol, 0.2 mg/ml BSA, 1 μM unlabeled ATP, […] [^33P]-ATP, 200 μM Kemptide, 3 ng Aurora A/well and 0.2% compound in 100% DMSO.
(§1) The reaction is stopped by adding 5 μl of a 3% phosphoric acid solution. 10 μl of the reaction mixture is then spotted onto a Filtermat P30 filter (Wallac) and washed 3 times for 5 min. in 75 mM phosphoric acid and 1 time for 5 min. in methanol prior to drying and quantification on the Typhoon (Amersham) using a phosphorage storage screen.
(§2) For each experiment, controls (containing enzyme (complex) and DMSO without compound), a blank incubation (containing DMSO but no enzyme (complex) or compound) and samples (containing enzyme (complex) and compound dissolved in DMSO) were run in parallel. All compounds tested were dissolved and eventually further diluted in DMSO. […] In each test, the blank value was subtracted from both the control and the sample values. The control sample represented maximal enzyme activity. For each sample, the amount of cpm was expressed as a percentage of the mean cpm value of the controls. When appropriate, IC50-values (concentration of the drug, needed to reduce the enzyme activity to 50% of the control) were computed using linear interpolation between the experimental points just above and below the 50% level. Herein the effects of test compounds are expressed as pIC50 (the negative log value of the IC50-value).
Chain of CDK4/cyclinD1 (P11802 whole entry): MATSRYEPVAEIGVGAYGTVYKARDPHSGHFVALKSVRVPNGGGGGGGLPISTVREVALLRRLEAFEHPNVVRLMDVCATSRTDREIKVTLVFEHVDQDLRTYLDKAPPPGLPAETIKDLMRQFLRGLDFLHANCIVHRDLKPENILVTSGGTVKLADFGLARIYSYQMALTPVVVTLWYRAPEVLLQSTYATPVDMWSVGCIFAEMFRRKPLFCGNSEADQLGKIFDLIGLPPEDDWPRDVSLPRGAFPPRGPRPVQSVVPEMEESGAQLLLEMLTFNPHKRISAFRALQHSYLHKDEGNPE
Chain of CDK4/cyclinD1 (P24385 whole entry partner): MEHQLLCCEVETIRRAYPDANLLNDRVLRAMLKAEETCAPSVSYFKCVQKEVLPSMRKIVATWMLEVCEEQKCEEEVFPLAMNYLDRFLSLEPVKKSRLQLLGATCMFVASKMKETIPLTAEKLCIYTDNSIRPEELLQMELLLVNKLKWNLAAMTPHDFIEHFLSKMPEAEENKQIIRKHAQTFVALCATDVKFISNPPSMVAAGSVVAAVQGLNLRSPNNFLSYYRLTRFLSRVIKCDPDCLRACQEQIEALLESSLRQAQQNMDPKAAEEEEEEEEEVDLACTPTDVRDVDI
For the compound `CN1CCN(Cc2ccc(N(C(=O)OC(C)(C)C)c3ncc4cnn([C@H]5C[C@@H]6CC[C@H]5C6)c4n3)cc2)CC1` [compound 39], the IC50 is 6.31 µM.
`CN1CCN(Cc2ccc(Nc3ncc4cnn([C@H]5C[C@@H]6CC[C@H]5C6)c4n3)cc2)CC1` [compound 40]: the IC50 was 0.316 µM.
Still for that read-out and setting: for `CC(C)(C)OC(=O)N(c1ccc(CN2CCOCC2)cc1)c1ncc2cnn([C@H]3C[C@@H]4CC[C@H]3C4)c2n1` [compound 41] the value was 3.16 µM; for `COCCCN1CCN(Cc2ccc(N(C(=O)OC(C)(C)C)c3ncc4cnn(C5CCCCC5)c4n3)cc2)CC1` [compound 42], more than 10 µM.
On to `COCCCN1CCN(Cc2ccc(Nc3ncc4cnn(C5CCCCC5)c4n3)cc2)CC1` [compound 43], for which the IC50 was 0.126 µM.
Still for that read-out and setting: for `COCCCC(=O)N1CCN(Cc2ccc(N(C(=O)OC(C)(C)C)c3ncc4cnn(C5CCCCC5)c4n3)cc2)CC1` [compound 44] the value was more than 10 µM; for `COCCCN(C(=O)OC(C)(C)C)C1CCN(Cc2ccc(N(C(=O)OC(C)(C)C)c3ncc4cnn(C5CCCCC5)c4n3)cc2)CC1` [compound 46], more than 10 µM.
For the compound `COCCCNC1CCN(Cc2ccc(Nc3ncc4cnn(C5CCCCC5)c4n3)cc2)CC1` [compound 47], the IC50 was 0.316 µM.
`CN1CCN(Cc2ccc(N(C(=O)OC(C)(C)C)c3ncc4cnn(C5CCOCC5)c4n3)cc2)CC1` [compound 48]: the IC50 is more than 10 µM.
As for `CC(C)(C)OC(=O)N(c1ccc(CN2CCOCC2)cc1)c1ncc2cnn(C3CCOCC3)c2n1` [compound 50], the IC50 is more than 10 µM.
Same read-out and setting: for `c1cc(Nc2ncc3cnn(C4CCOCC4)c3n2)ccc1CN1CCOCC1` [compound 51] the value was 1 µM; for `c1cc(Nc2ncc3cnn([C@H]4C[C@@H]5CC[C@H]4C5)c3n2)ccc1CN1CCOCC1` [compound 52], 0.158 µM.
In the case of `CC(C)(O)CN1CCN(Cc2ccc(Nc3ncc4cnn(C5CCOCC5)c4n3)cc2)CC1` [compound 53], the IC50 was more than 10 µM.
With `OCCN1CCN(Cc2ccc(Nc3ncc4cnn(C5CCOCC5)c4n3)cc2)CC1` [compound 54], the IC50 is more than 10 µM.

The target of the next assay is AURORA B (Homo sapiens, UniProt Q96GD4). The experiment in a line: In vitro filtration assay for AURORA B inhibitory activity. The format is biochemical. As to conditions: peptide (C(LRRWSLG)×4), 1 μM unlabeled ATP, 25° C. 40 minutes, read-out: Aurora B see C.3 (pIC50) (converted). On the procedure: Compounds of the present invention were tested in an in vitro filtration assay assessing AURORA B activity by means of its substrate-phosphorylation activity using [^33P]-ATP as phosphor donor. The radioactive phosphorylated substrate is then captured on filtermats and the incorporated [^33P] quantitated using a phosphorage storage screen.
Chain of AURORA B (Q96GD4 whole entry): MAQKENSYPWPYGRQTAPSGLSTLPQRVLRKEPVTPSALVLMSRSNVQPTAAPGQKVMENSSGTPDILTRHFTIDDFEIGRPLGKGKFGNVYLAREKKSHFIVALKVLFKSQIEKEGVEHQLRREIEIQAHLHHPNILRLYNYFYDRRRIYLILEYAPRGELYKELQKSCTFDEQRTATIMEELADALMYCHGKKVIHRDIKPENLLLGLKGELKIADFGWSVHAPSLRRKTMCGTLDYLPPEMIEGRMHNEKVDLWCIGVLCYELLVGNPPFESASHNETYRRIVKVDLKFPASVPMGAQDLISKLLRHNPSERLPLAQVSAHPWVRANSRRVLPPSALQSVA
The Aurora-B kinase reaction is performed at 25° C. for 40 minutes in a 96-well microtiterplate. The 25 μl reaction volume contains 60 mM Hepes pH 7.5, 3 mM MgCl2, 3 mM MnCl2, 3 μM Na3VO4, 50 μg/ml PEG20000, 1 μM unlabeled ATP, 1 mM DTT, 0.2 μCi AT^33P, 0.25 μg/well peptide (C(LRRWSLG)×4),100 ng Aurora-B/well and 0.2% compound in 100% DMSO. The reaction is stopped by adding 5 μl of a 3% phosphoric acid solution. 10 μl of the reaction mixture is then spotted onto a Filtermat P30 filter (Wallac) and washed 3 times for 5 min. in 75 mM phosphoric acid and 1 time for 5 min. in methanol prior to drying and quantification on the Typhoon (Amersham) using a phosphorage storage screen.
as §2
`CN1CCN(Cc2ccc(N(C(=O)OC(C)(C)C)c3ncc4cnn([C@H]5C[C@@H]6CC[C@H]5C6)c4n3)cc2)CC1` [compound 39]: the IC50 is more than 10 µM.
For `CN1CCN(Cc2ccc(Nc3ncc4cnn([C@H]5C[C@@H]6CC[C@H]5C6)c4n3)cc2)CC1` [compound 40], the IC50 was 0.398 µM.
Same read-out and setting: for `CC(C)(C)OC(=O)N(c1ccc(CN2CCOCC2)cc1)c1ncc2cnn([C@H]3C[C@@H]4CC[C@H]3C4)c2n1` [compound 41] the value was 3.16 µM; for `COCCCN1CCN(Cc2ccc(N(C(=O)OC(C)(C)C)c3ncc4cnn(C5CCCCC5)c4n3)cc2)CC1` [compound 42], more than 10 µM.
In the case of `COCCCN1CCN(Cc2ccc(Nc3ncc4cnn(C5CCCCC5)c4n3)cc2)CC1` [compound 43], the IC50 is 3.98 µM.
On the same count and under the same terms, for `COCCCC(=O)N1CCN(Cc2ccc(N(C(=O)OC(C)(C)C)c3ncc4cnn(C5CCCCC5)c4n3)cc2)CC1` [compound 44] the value was more than 10 µM; for `COCCCN(C(=O)OC(C)(C)C)C1CCN(Cc2ccc(N(C(=O)OC(C)(C)C)c3ncc4cnn(C5CCCCC5)c4n3)cc2)CC1` [compound 46], more than 10 µM.
Same read-out and setting: for `COCCCNC1CCN(Cc2ccc(Nc3ncc4cnn(C5CCCCC5)c4n3)cc2)CC1` [compound 47] the value was 3.98 µM; for `CN1CCN(Cc2ccc(N(C(=O)OC(C)(C)C)c3ncc4cnn(C5CCOCC5)c4n3)cc2)CC1` [compound 48], more than 10 µM; for `CC(C)(C)OC(=O)N(c1ccc(CN2CCOCC2)cc1)c1ncc2cnn(C3CCOCC3)c2n1` [compound 50], more than 10 µM.
The same measure, in the same setting: with `c1cc(Nc2ncc3cnn(C4CCOCC4)c3n2)ccc1CN1CCOCC1` [compound 51] the figure was more than 10 µM.
As to `c1cc(Nc2ncc3cnn([C@H]4C[C@@H]5CC[C@H]4C5)c3n2)ccc1CN1CCOCC1` [compound 52], the IC50 is 0.316 µM.
As to `CC(C)(O)CN1CCN(Cc2ccc(Nc3ncc4cnn(C5CCOCC5)c4n3)cc2)CC1` [compound 53], the IC50 is 7.94 µM.
Consider `OCCN1CCN(Cc2ccc(Nc3ncc4cnn(C5CCOCC5)c4n3)cc2)CC1` [compound 54], for which the IC50 is more than 10 µM.

In a further assay the target is CDK4/cyclinD1 (Homo sapiens, UniProt P11802). The experiment in a line: In vitro filtration assay for CDK4 inhibitory activity (pRb phosphorylation, [33P]-ATP). The assay is classed as biochemical. As to conditions: GST-pRb substrate, 1 μM unlabeled ATP, 25° C. 45 minutes, read-out: cdk4 filter (pIC50) (converted). The protocol:
Compounds of the present invention were tested in an in vitro filtration assay assessing CDK4 activity by means of its pRb-phosphorylation activity using [^33P]-ATP as phosphor donor. The radioactive phosphorylated pRb is then captured on filtermats and the incorporated [^33P] quantitated using a phosphorage storage screen.
The CDK4 kinase reaction is performed at 25° C. for 45 minutes in a 96-well microtiterplate. The 25 μl reaction volume contains 50 mM Hepes pH 7.5, 10 mM NaF, 10 mM MgCl2, 1 mM Na3VO4, 1 μM unlabeled ATP, 1 mM DTT, 0.5 μCi AT^33P, 0.76 μg/well GST-pRb, 50 ng CDK4/cyclinD1/well and 0.2% compound in 100% DMSO.
as §1, §2
On to `CN1CCN(Cc2ccc(N(C(=O)OC(C)(C)C)c3ncc4cnn([C@H]5C[C@@H]6CC[C@H]5C6)c4n3)cc2)CC1` [compound 39], for which the IC50 is 1.58 µM.
For the compound `CN1CCN(Cc2ccc(Nc3ncc4cnn([C@H]5C[C@@H]6CC[C@H]5C6)c4n3)cc2)CC1` [compound 40], the IC50 was 0.0631 µM.
On the same count and under the same terms, with `CC(C)(C)OC(=O)N(c1ccc(CN2CCOCC2)cc1)c1ncc2cnn([C@H]3C[C@@H]4CC[C@H]3C4)c2n1` [compound 41] the figure was 3.98 µM; with `COCCCN1CCN(Cc2ccc(N(C(=O)OC(C)(C)C)c3ncc4cnn(C5CCCCC5)c4n3)cc2)CC1` [compound 42], more than 10 µM.
Turning to `COCCCN1CCN(Cc2ccc(Nc3ncc4cnn(C5CCCCC5)c4n3)cc2)CC1` [compound 43], the IC50 is 0.0631 µM.
Turning to `COCCCC(=O)N1CCN(Cc2ccc(N(C(=O)OC(C)(C)C)c3ncc4cnn(C5CCCCC5)c4n3)cc2)CC1` [compound 44], the IC50 is more than 10 µM.
With `COCCCN(C(=O)OC(C)(C)C)C1CCN(Cc2ccc(N(C(=O)OC(C)(C)C)c3ncc4cnn(C5CCCCC5)c4n3)cc2)CC1` [compound 46], the IC50 is more than 10 µM.
Turning to `COCCCNC1CCN(Cc2ccc(Nc3ncc4cnn(C5CCCCC5)c4n3)cc2)CC1` [compound 47], the IC50 is 0.0316 µM.
Same read-out and setting: for `CN1CCN(Cc2ccc(N(C(=O)OC(C)(C)C)c3ncc4cnn(C5CCOCC5)c4n3)cc2)CC1` [compound 48] the value was more than 10 µM; for `CC(C)(C)OC(=O)N(c1ccc(CN2CCOCC2)cc1)c1ncc2cnn(C3CCOCC3)c2n1` [compound 50], more than 10 µM.
Still for that read-out and setting: with `c1cc(Nc2ncc3cnn(C4CCOCC4)c3n2)ccc1CN1CCOCC1` [compound 51] the figure was 5.01 µM; with `c1cc(Nc2ncc3cnn([C@H]4C[C@@H]5CC[C@H]4C5)c3n2)ccc1CN1CCOCC1` [compound 52], 0.0794 µM.
Regarding `CC(C)(O)CN1CCN(Cc2ccc(Nc3ncc4cnn(C5CCOCC5)c4n3)cc2)CC1` [compound 53], the IC50 was 0.501 µM.
On to `OCCN1CCN(Cc2ccc(Nc3ncc4cnn(C5CCOCC5)c4n3)cc2)CC1` [compound 54], for which the IC50 was 0.631 µM.

For the origin of these results see patent publication US7947695B2, “5-membered annelated heterocyclic pyrimidines as kinase inhibitors” (Janssen Pharmaceutica NV, priority 2005, dated 2011).
